Laboratory results from patent publication EP2647374A1, “Nutritional compositions including beta-hydroxy-beta-methylbutyrate for regulating transcription factors” (Abbott Laboratories, Inc., priority 2012, dated 2013).

Experiments:
L6 myotubes [1] = experiment: Protein degradation assay ([3H]Tyr release) in dexamethasone-treated myotubes; type: cell-based, rat; conditions: pre-incubation HMB 25 µM or Leu 10 mM 48 hours, then 48 hours with dexamethasone 5 µM
Method: (§1) Cell culture. The L6.C11 rat skeletal muscle myoblast line (ECACC No. 92102119) was grown in DMEM containing 10% (v/v) FCS, 2 mmol/l Glutamine plus 100 units/ml penicillin and 0.1 mg/ml streptomycin (Sigma) in an atmosphere of air/CO2 (95:5) and maintained at subconfluent densities in growth media. Cells were differentiated to myotubes by exchanging the growth medium for a differentiation medium consisting of DMEM containing 2% (v/v) FCS for 3-4 days (>50% fusion into multinucleated myotubes).
(§2) Protein synthesis and degradation assays. […] At the completion of the labeling period, cultures were rinsed three times with PBS, cells were lysed with sodium desoxycholate 0.1%/NaOH 0.1 M and protein was precipitated with cold 10% TCA in PBS overnight, rinsed once with cold 10% TCA, solubilized in NaOH 0.5 M, neutralized with HCl 0.5 M and mixed with scintillation fluid, and radioactivity was determined using a scintillation counter. […] Degradation rates were determined according to Hong & Forsberg, 1995.
To study the effects of HMB and Leu on protein degradation induced by dexamethasone, L6 differentiated myotubes were first differentiated to myotubes for 3 days in 2% FBS, and then the medium was changed to 10% FBS for the remainder of the experiment. […] After the incubation, protein degradation for each condition was calculated. […] Results are expressed as mean ± SEM of six independent experiments.

FOXO = experiment: FOXO-responsive luciferase reporter assay in L6 cells; type: cell-based, rat
Excerpt: (§3) Reporter gene constructs. For the analysis of rat Ubiquitin (UbC) promoter, a 417 bp fragment of 417 bp flanking the transcription start point was amplified from rat genomic DNA. This fragment was similar to those that have been characterized for the human and rat promoters. The sequences of all constructs were verified by automated DNA sequencing. The Cignal FOXO Reporter (luc) kit, CCS-1022L, was provided by SABiosciences and contains a mixture of inducible FOXO-responsive firefly luciferase construct and constitutively expressing Renilla luciferase construct (40:1).
(§4) DNA transfection assays. For transfection experiments, cells were used at 80-90% confluence. […] Luciferase activity was determined using standard reagents (Dual Luciferase method, Promega) in a luminometer (Sirius L, Berthold Technologies, Bad Wildbad, Germany) and results were standardized for Renilla luciferase activity. […] To allow comparison of the expression patterns, the data were expressed as relative changes in luciferase activity and were normalized to a value of 100%.
To address whether the down-regulation of atrogin-1 in HMB- pretreated cells was accompanied by an underlying regulation of the FOXO transcription factor, the total FOXO expression (monitored by using FOXO-luciferase reporter gene activity) and the amount FOXO3a transcription factor in the nucleus were analyzed. […]

UbC promoter = experiment: pGL3-UbC luciferase reporter assay in L6 myotubes; type: cell-based, rat; conditions: pre-treatment HMB 25 µM or Leu 10 mM 48 hours, then dexamethasone 5 µM 48 hours
Excerpt: as §3, §4
Additionally, the effect of HMB and Leu on UbC promoter implicated in protein degradation induced by dexamethasone was analyzed. […] Results are expressed as means ± SEM of six independent experiments.

PKB/Akt = experiment: Western blot of phospho-PKB/Akt vs total PKB/Akt in L6 myotubes; type: cell-based, rat; conditions: basal, without dexamethasone; HMB 25 µM or Leu 10 mM, 30 minutes
Method: (§5) Protein phosphorylation analysis. L6 myotubes were incubated with HMB or Leu in the absence or presence of dexamethasone for 30 minutes. After treatment, plates were flash frozen in liquid nitrogen and were scraped with 50 µl/60 mm/plate of cold 30 mmol/L Tris-HCl pH 7.4, 25 mmol/L NaCl, 1% (v/v) Triton X-100, 0.1% SDS, 10 mmol/L sodium fluoride, 10 mmol/L sodium pyrophosphate, 1 mmol/L sodium orthovanadate, 1 mmol/L EGTA, 20 nmol/L okadaic acid, 10 µg/ml aprotinin, 10 µg/ml leupeptin, 10 µg/ml pepstatin. After 10 minutes on ice, extracts were centrifuged at 13000 g for 10 minutes at 4°C. Protein concentration from the supernatants was measured using the Bio-Rad Protein Assay. […]
(§6) L6 Myoblasts were differentiated to myotubes for 3 days in 2% FBS. […] Cells were lysed in phosphorylation buffer and analyzed by Western blot using an anti-phospho PKB/Akt antibody (FIG. 3A), anti-phospho mTOR antibody (FIG. 3B), or anti-atrogin-1 antibody (FIG. 3C). […] The lower panels of each of FIGS. 3A-3C show densitometric quantification of: phospho-PKB/total PKB protein abundance (FIG. 3A); phospho-mTOR/total mTOR protein abundance (FIG. 3B); or atrogin-1 protein abundance using Histone H3 (FIG. 3C) as a reference control. Results are expressed as means ± SEM of four independent experiments.

mTOR = experiment: Western blot of phospho-mTOR vs total mTOR in L6 myotubes; type: cell-based, rat; conditions: basal, without dexamethasone; HMB 25 µM or Leu 10 mM, 30 minutes
Method: as §5, §6

ERK1/2 = experiment: Western blot of phospho-ERK1/2 vs total ERK1/2 in L6 myotubes; type: cell-based, rat; conditions: HMB 25 µM or Leu 10 mM, 30 minutes
Method: Protein phosphorylation analysis. L6 myotubes were incubated with HMB or Leu in the absence or presence of dexamethasone for 30 minutes. After treatment, plates were flash frozen in liquid nitrogen and were scraped with 50 µl/60 mm/plate of cold 30 mmol/L Tris-HCl pH 7.4, 25 mmol/L NaCl, 1% (v/v) Triton X-100, 0.1% SDS, 10 mmol/L sodium fluoride, 10 mmol/L sodium pyrophosphate, 1 mmol/L sodium orthovanadate, 1 mmol/L EGTA, 20 nmol/L okadaic acid, 10 µg/ml aprotinin, 10 µg/ml leupeptin, 10 µg/ml pepstatin. After 10 minutes on ice, extracts were centrifuged at 13000 g for 10 minutes at 4°C. Protein concentration from the supernatants was measured using the Bio-Rad Protein Assay. Proteins (25-40 µg) were separated by SDS-PAGE and immunoblotted with selected antibodies; the immunoblots were developed by chemiluminescence detection.
Taking into account that phosphorylation of FOXO3a by ERK is a required step for FOXO3a ubiquitination and subsequent proteosomal degradation of this transcription factor in the cytoplasm, the effect of HMB and Leu on ERK activation was also analyzed. Specifically, L6 Myoblasts were differentiated to myotubes for 3 days in 2% FBS. […] Cells were lysed in phosphorylation buffer and analyzed by Western blot using an anti-phospho ERK1/2 antibody. […] Results are expressed as means ± SEM of four independent experiments.

FOXO3a = experiment: Western blot of FOXO3a in nuclear extracts of L6 cells (Histone H3 reference); type: cell-based, rat
Method: Preparation of nuclear extracts. Nuclear extracts from L6 cells were prepared following Bhavsar et al. Protein concentration was measured in nuclear extracts using the Bio-Rad Protein Assay kit. Aliquots of the extracts (40 µg) were resolved by 10% SDS-PAGE and analyzed by immunoblotting using a 1:1000 dilution of polyclonal anti-FOXO3a or anti-Histone H3 antibodies. The antigen-antibody complexes were detected with HRP-conjugated secondary antibodies using a chemiluminescence detection system (Bio-Rad).
To address whether the down-regulation of atrogin-1 in HMB- pretreated cells was accompanied by an underlying regulation of the FOXO transcription factor, the total FOXO expression (monitored by using FOXO-luciferase reporter gene activity) and the amount FOXO3a transcription factor in the nucleus were analyzed. L6 Myoblasts were differentiated to myotubes for 3 days in 2% FBS. After the differentiation process, medium was changed to 10% FBS for the remainder of the experiment. Myotubes were incubated in the presence or absence of HMB (25 µM) or Leu (10 mM) for 48 hours. […]
Further, L6 untransfected cells were treated as above, nuclear extracts were obtained as described in the material and methods section and analyzed by Western blot using an anti-FOXO3 antibody. […] Results are expressed as means ± SEM of four independent experiments.

L6 myotubes [2] = experiment: Protein synthesis assay ([3H]Tyr incorporation) in dexamethasone-treated myotubes; type: cell-based, rat; conditions: HMB 25 µM or Leu 10 mM, 2 hours plus 1 hour labeling, dexamethasone 5 µM
Method: as §1, §2
Particularly, L6 myotubes were treated with HMB (25 µM) or Leu (10 mM) for 2 hours in the presence or absence of dexamethasone (5 µM). […] After the incubation, protein synthesis for each condition was calculated. […] Results are expressed as means ± SEM of six independent experiments.

atrogin-1 = experiment: cells; type: cell-based; conditions: Rattus norvegicus, L6, 48 h, read-out: increase in amount of atrogin-1
Method: Atrogin-1 analysis. L6 myotubes were pre-incubated with HMB 25 µM or Leu 10 mM for 48 hours. Then, dexamethasone 5 µM was added for another 48 hours. After treatment, cells were lysed with RIPA buffer (Sigma) supplemented with inhibitor protease cocktail (Sigma). Lysates were sonicated and protein concentration was measured using the Bio-Rad Protein Assay. Proteins (40 µg) were separated by SDS-PAGE and immunoblotted with anti-atrogin antibody.
L6 Myoblasts were differentiated to myotubes for 3 days in 2% FBS. Cells were deprived of FBS for 12 hours and incubated with HMB (25 µM) or Leu (10 mM) and insulin (100 nmol/l) in the absence or presence of dexamethasone (5 µM) for 30 minutes. Cells were lysed in phosphorylation buffer and analyzed by Western blot using an anti-phospho PKB/Akt antibody (FIG. 3A), anti-phospho mTOR antibody (FIG. 3B), or anti-atrogin-1 antibody (FIG. 3C). As a loading control, results were normalized using an anti-total PKB/Akt antibody, anti-total mTOR antibody, or an anti-Histone H3 antibody (see FIGS. 3A-3C, respectively). […] The lower panels of each of FIGS. 3A-3C show densitometric quantification of: phospho-PKB/total PKB protein abundance (FIG. 3A); phospho-mTOR/total mTOR protein abundance (FIG. 3B); or atrogin-1 protein abundance using Histone H3 (FIG. 3C) as a reference control. Results are expressed as means ± SEM of four independent experiments.

[3] = basal conditions, absence of dexamethasone, HMB 25 µM or Leu 10 mM
[4] = pre-treatment HMB 25 µM or Leu 10 mM 48 hours, then dexamethasone 5 µM 12 hours

With `CC(C)(O)CC(=O)O` [HMB, beta-hydroxy-beta-methylbutyrate] as the molecule, how does the inhibition at 25 µM (L6 myotubes [1]; Rattus norvegicus, L6, read-out: decrease of proteolysis induced by dexamethasone) read?
The inhibition at 25 µM was ~60%.

Which results are given for `CC(C)C[C@H](N)C(=O)O` [Leu, Leucine]?
FOXO basal activity (FOXO; [3]): neither HMB nor Leu were able to significantly change FOXO basal activity or amount; FOXO overexpression induced by dexamethasone (reporter activity) (FOXO; [4]): did not have any effect on the dexamethasone-increased FOXO expression and amount; counteraction of the effects of dexamethasone on Ub-C promoter activity (UbC promoter): only HMB was able to significantly counteract the effects of dexamethasone on Ub-C promoter activity; phosphorylative state of Akt (PKB/Akt): did not have influence on the phosporylative state of Akt and mTOR; phosphorylative state of mTOR (mTOR): did not have influence on the phosporylative state of Akt and mTOR; ERK activation (phospho-ERK/total ERK) (ERK1/2; atrophic conditions (dexamethasone 5 µM)): induced an activation of ERK kinase either at basal or at atrophic conditions; ERK activation (phospho-ERK/total ERK) (ERK1/2; basal conditions): induced an activation of ERK kinase either at basal or at atrophic conditions; FOXO basal amount (nuclear FOXO3a) (FOXO3a; [3]): neither HMB nor Leu were able to significantly change FOXO basal activity or amount; FOXO3a nuclear translocation induced by dexamethasone (FOXO3a; [4]): did not have any effect on the dexamethasone-increased FOXO expression and amount; prevention of the decrease in protein synthesis induced by dexamethasone (L6 myotubes [2]): but not Leu; decrease of proteolysis induced by dexamethasone (L6 myotubes [1]): did not significantly affect glucocorticoid-induced protein degradation

For `C[C@@H]1C[C@H]2[C@@H]3CCC4=CC(=O)C=C[C@]4(C)[C@@]3(F)[C@@H](O)C[C@]2(C)[C@@]1(O)C(=O)CO` [dexamethasone], which fold induction at 5 µM (atrogin-1) is on record?
The fold induction at 5 µM was > 4.
